Measured values: patent US20260125346A1, “Isoquinolinone Derivatives and 4H-Quinolizinone Derivatives and Pharmaceutical Compositions Thereof for the Treatment of Disease” (BeOne Medicines I GmbH, priority 2023, published 2026)

Assays:
Assay type in all cases: cell-based
[1] = tested on: WT cell line SK-BR-3; experiment: Cell Proliferation Assay (CellTiter-Glo), SK-BR-3; settings: Homo sapiens, 72 h; SK-BR-3, 3 days treatment
Procedure: The SK-BR-3 (ATCC, HTB-30) cell line was obtained from the American Type Culture Collection. Cells were maintained in McCoy' 5A medium (Gibco, REF #16600108) supplemented with 10% Fetal Bovine Serum. Cultures were maintained in a humidified incubator at 37° C. under 5% CO2/95% air.
Cell Proliferation Assay. PI3Kα H1047R mutated cell line T-47D cells and WT cell line SK-BR-3 were seeded at a density of 3×10^3 cells per well in 96 well plate (Xinyou Biotechnology, 062096) in 95 μL of culture medium, overnight. Compounds dissolved in 10 mM stock solutions in DMSO were serially diluted 1:3 in DMSO to generate a 9-point dilution series and plated using an INTEGRA ASSIST Plus pipetting robot. A 20× intermediate compound dilution plate in RPMI1640 medium (200 M starting compound concentration in 2% DMSO) was then prepared. Five μL of intermediate serially diluted compounds were added to the cell plate to final concentrations ranging from […] to 1 nM in 0.1% DMSO. 0.1% DMSO alone was used to establish the maximum signal and medium without cells was for minimum signal. After 3 days treatment, equilibrated the plate and its contents at room temperature for approximately 30 minutes. Added 30 μL CellTiter-Glo® Reagent (Promega, REF #G7571) to each well. Then mixed contents for 5 min on plate shaker to induce cell lysis. Incubated at room temperature for 10 minutes to stabilize luminescent signal. The plates were read on PHERAstar FSX Microplate reader using standard luminescence settings.
Relative IC50 values were determined using luminescence units by calculating percent inhibition with respect to the in-plate “MIN” (medium only) and “MAX” (0.1% DMSO) controls. The data were analyzed using a 4-parameter nonlinear logistic equation (four-parameter logistic concentration-response curve): Y=bottom+[(top−bottom)/1+(X/IC50) slope] • where Y=% inhibition, X=concentration of inhibitor, bottom=minimum value of y attained by curve-fit, top=maximum value of y attained by curve-fit and slope=steepness of curve at the IC50.

[2] = tested on: PI3Kα H1047R mutated cell line T-47D; experiment: Phospho-AKT (Ser473) Inhibition Assay (HTRF), T-47D; settings: for IC50: Homo sapiens, T47D, T-47D, 1 hour treatment, read-out: p-AKT Inhibition assay (S473) IC50 T-47D; for Selectivity: SK-BR-3/T-47D (p-AKT): p-AKT (S473) IC50 ratio
How it was run: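 Cells seeded overnight in insulin-supplemented MEM, then treated 1 h with 11-point 1:3 compound dilutions (10 μM to 0.1 nM final, 0.1% DMSO). Lysates assayed for phospho-AKT Ser473 by HTRF; IC50 from 4-parameter logistic fit, normalised to DMSO (max) and 10 μM GDC0077 (min).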

[3] = tested on: PI3Kα H1047R mutated cell line T-47D cells; experiment: Cell Proliferation Assay (CellTiter-Glo), T-47D; settings: for IC50: Homo sapiens, T47D, 72 h, T-47D, 3 days treatment; for Selectivity: SK-BR-3/T-47D (cell proliferation): cell proliferation IC50 ratio
How it was run: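 T-47D cells seeded overnight at 3×10^3/well, then exposed 3 days to 9-point 1:3 dilutions, final […] to 1 nM in 0.1% DMSO. CellTiter-Glo luminescence; relative IC50 from percent inhibition versus medium-only and 0.1% DMSO controls, 4-parameter logistic fit.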

Structure (SMILES) | IC50 [1] [nM] | IC50 [2] [nM] | Selectivity: SK-BR-3/T-47D (p-AKT) [2] | IC50 [3] [nM] | Selectivity: SK-BR-3/T-47D (cell proliferation) [3]
Cc1cc([C@@H](C)Nc2ccccc2C(=O)O)c2cc(-c3ccc(-c4cnn(C)c4)cc3)n(C)c(=O)c2c1 [Example 40, (R)-2-((1-(2,7-dimethyl-3-(4-(1-methyl-1H-pyrazol-4-yl)phenyl)-1-oxo-1,2-dihydroisoquinolin-5-yl)ethyl)amino)benzoic acid] | > 10000 | 24.3 | 33.5 | 52.7 | >190
Cc1cc(C(C)Nc2ccccc2C(=O)O)c2cc(C#Cc3ccccc3)n(C)c(=O)c2c1 (centres unmarked) [Example 43, 2-((1-(2,7-dimethyl-1-oxo-3-(phenylethynyl)-1,2-dihydroisoquinolin-5-yl)ethyl)amino)benzoic acid] | > 10000 | 408 | 4.0 | 620 | >16
Cc1cc(C(C)Nc2ccccc2C(=O)O)c2cc(/C=C/c3ccccc3)n(C)c(=O)c2c1 (centres unmarked) [Example 44, (E)-2-((1-(2,7-dimethyl-1-oxo-3-styryl-1,2-dihydroisoquinolin-5-yl)ethyl)amino)benzoic acid] | > 10000 | 560 | 3.8 | 4770 | >2.1
Cc1cc(C(C)Nc2ccccc2C(=O)O)c2cc(C3=Cc4ccccc4CC3)n(C)c(=O)c2c1 (centres unmarked) [Example 45, 2-((1-(3-(3,4-dihydronaphthalen-2-yl)-2,7-dimethyl-1-oxo-1,2-dihydroisoquinolin-5-yl)ethyl)amino)benzoic acid] | > 10000 | 63.9 | 44.0 | 841 | >12
Cc1cc(C(C)Nc2ccccc2C(=O)O)c2cc(C3=CCN(c4ccccc4)CC3)n(C)c(=O)c2c1 (centres unmarked) [Example 46, 2-((1-(2,7-dimethyl-1-oxo-3-(1-phenyl-1,2,3,6-tetrahydropyridin-4-yl)-1,2-dihydroisoquinolin-5-yl)ethyl)amino)benzoic acid] | > 10000 | 92.4 | 54.8 | 210 | >48
Cc1cc(C(C)Nc2cc3ccsc3cc2C(=O)O)c2cc(-c3ccccc3)n(C)c(=O)c2c1 (centres unmarked) [Example 47, 5-((1-(2,7-dimethyl-1-oxo-3-phenyl-1,2-dihydroisoquinolin-5-yl)ethyl)amino)benzo[b]thiophene-6-carboxylic acid] | > 10000 | 57.2 | >175 | > 10000 | –
Cc1cc(C(C)Nc2c(C(=O)O)sc3ccccc23)c2cc(-c3ccccc3)n(C)c(=O)c2c1 (centres unmarked) [Example 48, 3-((1-(2,7-dimethyl-1-oxo-3-phenyl-1,2-dihydroisoquinolin-5-yl)ethyl)amino)benzo[b]thiophene-2-carboxylic acid] | > 10000 | 632 | 6.0 | > 10000 | –
Cc1cc(C(C)Nc2ccccc2C(=O)O)c2cc(-c3ccc(C(F)(F)F)cc3)n(C)c(=O)c2c1 (centres unmarked) [Example 49, 2-((1-(2,7-dimethyl-1-oxo-3-(4-(trifluoromethyl)phenyl)-1,2-dihydroisoquinolin-5-yl)ethyl)amino)benzoic acid] | > 10000 | 89.2 | 50.7 | 986 | >10
Cc1cc(C(C)Nc2ccccc2C(=O)O)c2cc(-c3cccc(C(F)(F)F)c3)n(C)c(=O)c2c1 (centres unmarked) [Example 50, 2-((1-(2,7-dimethyl-1-oxo-3-(3-(trifluoromethyl)phenyl)-1,2-dihydroisoquinolin-5-yl)ethyl)amino)benzoic acid] | > 10000 | 86.6 | 79.1 | 3230 | >3.1
Cc1cc(C(C)Nc2ccccc2C(=O)O)c2cc(-c3ccc(C(C)(C)O)cc3)n(C)c(=O)c2c1 (centres unmarked) [Example 51, 2-((1-(3-(4-(2-hydroxypropan-2-yl)phenyl)-2,7-dimethyl-1-oxo-1,2-dihydroisoquinolin-5-yl)ethyl)amino)benzoic acid] | > 10000 | 167 | 38.7 | 94.5 | >106
CC#Cc1ccc(-c2cc3c(C(C)Nc4ccccc4C(=O)O)cc(C)cc3c(=O)n2C)cc1 (centres unmarked) [Example 52, 2-((1-(2,7-dimethyl-1-oxo-3-(4-(prop-1-yn-1-yl)phenyl)-1,2-dihydroisoquinolin-5-yl)ethyl)amino)benzoic acid] | > 10000 | 75.6 | 95.1 | 706 | >14
Cc1cc(C(C)Nc2ccccc2C(=O)O)c2cc(-c3ccc4c(c3)C3CC3O4)n(C)c(=O)c2c1 (centres unmarked) [Example 53, 2-((1-(3-(1a,6b-dihydro-1H-cyclopropa[b]benzofuran-5-yl)-2,7-dimethyl-1-oxo-1,2-dihydroisoquinolin-5-yl)ethyl)amino)benzoic acid] | > 10000 | 44.7 | 56.6 | 815 | >12
Cc1cc(C(C)Nc2ccccc2C(=O)O)c2cc(-c3ccc(C(C)(C)O)nc3)n(C)c(=O)c2c1 (centres unmarked) [Example 55, 2-((1-(3-(6-(2-hydroxypropan-2-yl)pyridin-3-yl)-2,7-dimethyl-1-oxo-1,2-dihydroisoquinolin-5-yl)ethyl)amino)benzoic acid] | > 10000 | 1560 | >6.4 | 296 | >34
Cc1cc([C@@H](C)Nc2ccccc2C(=O)O)c2cc(-c3ccc(C(C)(C)O)nc3)n(C)c(=O)c2c1 [Example 56, (R)-2-((1-(3-(6-(2-hydroxypropan-2-yl)pyridin-3-yl)-2,7-dimethyl-1-oxo-1,2-dihydroisoquinolin-5-yl)ethyl)amino)benzoic acid] | > 10000 | 512 | >19.55 | 96.2 | >104
Cc1cc([C@H](C)Nc2ccccc2C(=O)O)c2cc(-c3ccc(C(C)(C)O)nc3)n(C)c(=O)c2c1 [Example 57, (S)-2-((1-(3-(6-(2-hydroxypropan-2-yl)pyridin-3-yl)-2,7-dimethyl-1-oxo-1,2-dihydroisoquinolin-5-yl)ethyl)amino)benzoic acid] | > 10000 | > 10000 | – | > 10000 | –
COc1ncc(-c2cc3c(C(C)Nc4ccccc4C(=O)O)cc(C)cc3c(=O)n2C)cc1F (centres unmarked) [Example 58, 2-((1-(3-(5-fluoro-6-methoxypyridin-3-yl)-2,7-dimethyl-1-oxo-1,2-dihydroisoquinolin-5-yl)ethyl)amino)benzoic acid] | > 10000 | 220 | 14.3 | 351 | >29
COc1ncc(-c2cc3c([C@@H](C)Nc4ccccc4C(=O)O)cc(C)cc3c(=O)n2C)cc1F [Example 59, (R)-2-((1-(3-(5-fluoro-6-methoxypyridin-3-yl)-2,7-dimethyl-1-oxo-1,2-dihydroisoquinolin-5-yl)ethyl)amino)benzoic acid] | > 10000 | 81.5 | >123 | 93.1 | >107
Cc1cc(C(C)Nc2ccccc2C(=O)O)c2cc(-c3cncnc3)n(C)c(=O)c2c1 (centres unmarked) [Example 61, 2-((1-(2,7-dimethyl-1-oxo-3-(pyrimidin-5-yl)-1,2-dihydroisoquinolin-5-yl)ethyl)amino)benzoic acid] | > 10000 | 1400 | >7.15 | 340 | >29
